# Measured values taken from PubChem BioAssay (NCI).
#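 Assay format: 96-well plates, 48-hour exposure. TGI: total growth inhibition.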
# Columns and labels:
# P388 leukemia = experiment: NCI tumour cell line growth inhibition, 48 h
# SN12K1 renal = experiment: NCI tumour cell line growth inhibition, 48 h
compound,measurement,setting,value
CNC(=O)OCc1nc(SC)n(C)c1CO,TGI,P388 leukemia,> 100 µM
same,TGI,SN12K1 renal,> 100 µM
